Key:
crenactin [1] = biological target: T1, crenactin (Pyrobaculum calidifontis, UniProt A3MWN5); test: cryoEM helical reconstruction, […] A; assay type: binding; details: filament polymerised with 2 mM ATP and 4 mM MgCl2, 50 mM NH4HCO3, 20 mM KCl, on ice; ATPase active site
T1 construct: gene cren-1; full length 1-432, N-terminal His6-SUMO tag cleaved by SENP1; E. coli C41(DE3), codon-optimised gene; double helical filament (homopolymer); model residues 5-430

crenactin [2] = biological target: T1, crenactin; test: […] degree light scattering, polymerisation; assay type: biochemical; details: 3 uM crenactin, 2 mM ATP, 4 mM MgCl2, 50 mM NH4HCO3, 50 mM NaCl, 8% PEG 8000, 25 C

T1 sequence (A3MWN5 whole entry, the tested form may be a part): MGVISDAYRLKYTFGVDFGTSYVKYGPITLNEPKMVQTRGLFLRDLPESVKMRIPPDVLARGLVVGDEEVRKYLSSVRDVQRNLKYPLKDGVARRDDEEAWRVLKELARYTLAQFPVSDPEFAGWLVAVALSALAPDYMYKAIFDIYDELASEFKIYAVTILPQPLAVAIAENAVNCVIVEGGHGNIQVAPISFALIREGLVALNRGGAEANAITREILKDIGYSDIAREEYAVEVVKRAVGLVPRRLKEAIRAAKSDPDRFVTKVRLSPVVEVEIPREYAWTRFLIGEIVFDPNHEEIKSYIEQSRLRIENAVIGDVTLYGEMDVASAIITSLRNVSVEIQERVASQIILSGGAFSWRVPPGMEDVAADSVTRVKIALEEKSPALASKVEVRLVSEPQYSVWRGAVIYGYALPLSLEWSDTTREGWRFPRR

SMILES | cryoEM helical reconstruction, 3.8 A (crenactin [1]) | 90 degree light scattering, polymerisation (crenactin [2])
Nc1ncnc2c1ncn2[C@@H]1O[C@H](COP(=O)(O)OP(=O)(O)O)[C@@H](O)[C@H]1O [ADP] | The cryoEM density for the ADP nucleotide is superimposed. | 
Nc1ncnc2c1ncn2[C@@H]1O[C@H](COP(=O)(O)OP(=O)(O)OP(=O)(O)O)[C@@H](O)[C@H]1O [ATP] |  | Addition of ATP to crenactin resulted in an increase of scattering

Source: PMC5173319, “Crenactin forms actin-like double helical filaments regulated by arcadin-2” (eLife, 2016)
